Laboratory results taken from EP4635490A1, “PM20D1-DERIVED N-OLEOYL-L-LEUCINE FOR THE TREATMENT AND PREVENTION OF NEURODEGENERATIVE DISEASES” (Consejo Superior De Investigaciones Científicas, priority 2024, dated 2025).

Legend:
[1] = system: APP/PS1-derived hippocampal neuronal cultures; experiment: LDH release viability assay under H2O2 (ROS) stress; format: cell-based, mice; settings: 200nM C18:1-Leu, 16h with 150µM H2O2 (Fig. 1b legend); n=10, p=0.0048
Protocol: (§1) • Fig. 1. C18:1-Leu treatment in neuronal cultures. a, Enzyme-linked immunosorbent assays (ELISA) of APP/PS1-derived hippocampal neuronal cultures treated during 24h with 200nM C18:1-Leu. n=5 per group, p=0.0093; one-sided Student's t-test. b, Lactate dehydrogenase (LDH) release viability assay of APP/PS1-derived hippocampal neuronal cultures treated during 16h with 150µM H2O2 and 200nM C18:1-Leu. ROS, reactive oxygen species. n=10 per group, p=0.0048; one-sided Student's t-test. b, AlamarBlue cell viability assay of SH-SY5Y cells treated during 24h with 10µM thapsigargin and 200nM C18:1 -Leu. UPS, unfolded-protein stress. n=5 per group, p=0.0084; one-sided Student's t-test. Single values (experiments) are represented by dots. *p<0.05, and **p<0.01. • Fig. 2. […] AD pathologies and phenotypes in APP/PS1 mice. a, Methoxy-X04 (MX04) IHC amyloid burden (area) quantification. n=8 per group, p=0.0283; one-sided Student's t-test. b, Novel object recognition (NOR) performance of vehicle and C18:1-Leu treated APP/PS1 mice. […]

[2] = system: APP/PS1-derived primary microglia; experiment: Transwell migration assay (Aβ chemotaxis) of primary microglia; format: cell-based, mice; settings: 200nM C18:1-Leu, 24h, conditioned Aβ media in lower chamber; n=6, p=0.0007
Protocol: as §1

[3] = system: APP/PS1-derived hippocampal neuronal cultures; experiment: ELISA of Aβ production in primary hippocampal neuronal cultures; format: cell-based, mice; settings: 200nM C18:1-Leu, 24h vs vehicle; n=5, p=0.0093
Protocol: as §1

APP/PS1 mice [4] = experiment: Novel object recognition test in APP/PS1 mice; format: in vivo; settings: 25 mg/kg/day p.o. during three months, starting at 15 months-of-age; n=11-15, p=0.0312
Protocol: as §1

SH-SY5Y cells = experiment: AlamarBlue cell viability assay under thapsigargin (unfolded-protein stress); format: cell-based, human; settings: 200nM C18:1-Leu, 24h with 10µM thapsigargin; n=5, p=0.0084
Protocol: as §1

GMC101 worms [5] = experiment: Mobility phenotyping of GMC101 worms (AD model); format: in vivo, C. elegans; settings: 200 µM C18:1-Leu, first 3 days of adulthood, vs vehicle
Protocol: as §1

[6] = system: APP/PS1-derived primary microglia; experiment: Aβ clearance by primary microglia, Amyloid beta 40 ELISA; format: cell-based, mice; settings: 200nM C18:1-Leu, 24h in presence of Aβ; n=5, p=0.0201
Protocol: as §1

GMC101 worms [7] = experiment: Amyloid aggregation in GMC101 worms (western blot); format: in vivo, C. elegans; settings: 200 µM C18:1-Leu, GMC101 worms at day 1, vs vehicle; p=0.0108
Protocol: as §1

APP/PS1 mice [8] = experiment: Immunohistochemistry of brain sections of treated APP/PS1 mice (amyloid plaques, microglia, neuronal damage); format: in vivo
Protocol: • Fig. 1. C18:1-Leu treatment in neuronal cultures. a, Enzyme-linked immunosorbent assays (ELISA) of APP/PS1-derived hippocampal neuronal cultures treated during 24h with 200nM C18:1-Leu. n=5 per group, p=0.0093; one-sided Student's t-test. b, Lactate dehydrogenase (LDH) release viability assay of APP/PS1-derived hippocampal neuronal cultures treated during 16h with 150µM H2O2 and 200nM C18:1-Leu. ROS, reactive oxygen species. n=10 per group, p=0.0048; one-sided Student's t-test. b, AlamarBlue cell viability assay of SH-SY5Y cells treated during 24h with 10µM thapsigargin and 200nM C18:1 -Leu. UPS, unfolded-protein stress. n=5 per group, p=0.0084; one-sided Student's t-test. Single values (experiments) are represented by dots. *p<0.05, and **p<0.01. • Fig. 2. AD pathologies and phenotypes in GMC101 worms. a, Mobility assessment in vehicle and C18:1-Leu treated GMC101 worms during the 3 first days of adulthood. a.u., arbitrary units. n=75-100 worms per time, p=0.0001 and p=0.0152 for day 2 and 3, respectively; one-sided Student's t-test. b, Pumping per minute in vehicle and C18:1-Leu treated GMC101 worms at day 3. n=7 per group, p=0.0162; one-sided t-test. c, Relative amyloid aggregation in vehicle and C18:1-Leu treated GMC101 worms at day 1. n=6 experiments of -1000 worms each, pval=0.0108; one-sided Student's t-test. Single values (animals) are represented by dots. *p<0.05, and ***p<0.001. • Fig. 3. AD pathologies and phenotypes in APP/PS1 mice. a, Methoxy-X04 (MX04) IHC amyloid burden (area) quantification. n=8 per group, p=0.0283; one-sided Student's t-test. b, Novel object recognition (NOR) performance of vehicle and C18:1-Leu treated APP/PS1 mice. C18:1-Leu was provided from 15 to 18 months (m) of age. n=11-15 per group, p=0.0312. Single values (animals) are represented by dots. *p<0.05, **p<0.01, and ***p<0.001. • Fig. 4. Microglia analysis in C18:1-Leu treated APP/PS1 mice. a, Quantification of Ionized calcium-binding adaptor molecule 1 (IBA1, microglia) area within methoxy-X04 (MX04, amyloid plaques) region of interest (ROI). n=6-7 per group, p=0.0051; one-sided Student's t-test. b, Amyloid plaque number quantification. n=8 per group, p=0.0444; one-sided Student's t-test. c, Percentage of amyloid halo (diffuse, toxic) area over plaque dense core. n=8 per group, p=0.0389; one-sided Student's t-test. d, Percentage of the Lysosome-associated protein 1 (LAMP1, neuronal damage) area over to plaque dense core. n=8-9 per group, p=0.0132; one-sided Student's t-test. Single values (animals) are represented by dots. *p<0.05, and **p<0.01. • Fig. 5. C18:1-Leu treatment in microglia cultures. a, Transwell assay of APP/PS1-derived primary microglia treated during 24h with 200nM C18:1-Leu. n=6 per group, p=0.0007; one-sided Student's t-test. b, Amyloid-beta 40 (Aβ40) ELISA assays of APP/PS1-derived primary microglia cultures after 24h of 200nM C18:1-Leu treatment in presence of amyloid-beta (Aβ). n=5 per group, p=0.0201; one-sided Student's t-test. Single values (experiments) are represented by dots. *p<0.05, **p<0.01, and ***p<0.001. • Fig. 6. RNA expression signatures in human samples I. C18:1-Leu score according to PM20D1 haplotype in Alzheimer's disease (AD) and control postmortem brain samples. a, n=387 control and n=511 AD samples, Wilcoxon test, ****p<0.0001 • Fig. 7. RNA expression signatures in human samples II. Correlation between PIG and C18:1-Leu scores in AD samples. n=511 AD samples, Spearman correlation. • Fig. 8. […]

Structure (SMILES): CCCCCCCC/C=C\CCCCCCCC(=O)N[C@@H](CC(C)C)C(=O)O [C18:1-Leu, N-oleoyl-L-Leucine]
- neuroprotection against ROS (cell viability, LDH release) [1]: increases neuroprotection against ROS
- Aβ chemotaxis (migrated microglia) [2]: increased Aβ chemotaxis
- Aβ production [3]: reduces Aβ production in neuronal cells
- cognitive deficits (novel object recognition test) (APP/PS1 mice [4]): improves
- neuroprotection against UPS stress (cell viability, AlamarBlue) (SH-SY5Y cells): increases neuroprotection
- AD-like phenotypes - spontaneous and induced mobility (GMC101 worms [5]): significantly improves
- Aβ clearance (remaining Aβ40 in media) [6]: increases Aβ clearance
- amyloid pathologies (relative amyloid aggregation) (GMC101 worms [7]): significantly improves
- amyloid burden (Methoxy-X04 IHC area) (APP/PS1 mice [8]; 25 mg/kg/day p.o. during three months, starting at 15 months-of-age, n=8, p=0.0283): improves amyloid burden
- microglia association with amyloid plaques (relative MX04 area occupied by IBA1) (APP/PS1 mice [8]; C18:1-Leu treated APP/PS1 mice vs vehicle, n=6-7, p=0.0051): increased microglia association
- relative size of the diffuse halo of the plaques (APP/PS1 mice [8]; C18:1-Leu treated APP/PS1 mice vs vehicle, n=8, p=0.0389): reduced
- number of amyloid plaques (APP/PS1 mice [8]; C18:1-Leu treated APP/PS1 mice vs vehicle, n=8, p=0.0444): reduced
- LAMP1 area (neuronal damage) over plaque dense core (APP/PS1 mice [8]; C18:1-Leu treated APP/PS1 mice vs vehicle, n=8-9, p=0.0132): stronger LAMP1 area reduction
